Data set [1] relates to C57BL/6 hepatocytes. It is filed as cell-based. The settings on record: not shown. Here is the method:
Whereas Fas-mediated apoptotic death receptor activation requires generation of ceramide-rich platforms in some cell systems, CTL-induced platform generation was assessed in asmase^+/+ and asmase^−/− hepatocytes in the ex vivo model of GvHD. Alloactivated T cells induced rapid generation of ceramide-rich platforms on the surface of the target hepatocytes 10 min following co-incubation (FIG. 16C). Platform generation increased within one minute, peaked at 10 min, and persisted for over 60 min (FIG. 16D). Fas, required for apoptosis in this system, concentrated within the ceramide-rich platform as determined by confocal microscopy.
Platforms were detected as previously described. […]; Sigma-Aldrich) for 45 min at 4° C., washed twice in PBS containing 0.1% Triton X-100 and mounted in fluorescent mounting medium (Dako, Carpenteria CA). Fluorescence was detected using an Axiovert S-100 Zeiss fluorescence microscope equipped with a SPOT digital camera. The percentage of cells containing platforms, i.e. those in which the fluorescence condenses onto less than 15% of the cell surface, was determined by counting 150-250 cells per point. Alternately, platforms were identified using a mouse monoclonal anti-ceramide antibody MID 15B4 IgM (1:50 dilution, Alexis Biochemicals), mouse monoclonal anti-Fas CH-11 IgM (1:500 dilution, Upstate Biotechnology) or polyclonal rabbit anti-ASMase antibody 1598 (1:100 dilution) and detected using Cy3-conjugated anti-mouse or anti-rabbit IgM (1:500 dilution, Roche Molecular Biochemicals), respectively. Rabbit polyclonal anti-CD46 (1:1000 dilution, Santa Cruz Biotechnology, Santa Cruz CA) was used as a negative control. In some studies, confocal images were obtained using a Leica TCS SPZ upright confocal microscope. Alternatively, 0.5×10^6hepatocytes were stimulated for the indicated times with CTLs and platform formation was assessed as described.

Data set [2] has as its system C57BL/6 splenocytes. Kind of data set: MLR-primed CTL-induced splenocyte lysis (51Cr release). It is filed as cell-based, mouse. The settings on record: 500 nM. Here is the method:
To show the generic role of target cell ASMase in T cell-induced lysis, we used two standardized assays for T cell function; MLR-primed CTL-induced splenocyte lysis (FIG. 17) and in vitro activation-induced cell death (AICD) of T cells (FIG. 18). The role of target cell ASMase was assessed in an in vitro activated MLR, in which C57BL/6 splenocyte target cells of asmase^+/+ or asmase^−/− genotype were stimulated for 48 hrs with mitogen, washed and chromium labeled. These cells were then coincubated with effector Balb/c splenocytes activated for 5 days by culture with irradiated C57BL/6 splenocytes. Chromium release was quantified and the % lysis was calculated. […] Washed splenocytes cells were coincubated with increasing ratios of activated effector Balb/c T cells, and ^51Cr release was quantified 6 hour thereafter. […]
To evaluate a potential generic role for target cell ASMase in platform generation in T cell-induced lysis, we tested two standardized assays for T cell-mediated cytolysis, MLR-primed CTL-induced splenocyte lysis, and in vitro AICD of T cells. […] Furthermore, MLR-primed CTLs induced 43.2±6.5% asmase^+/+ splenocyte lysis at an effector:target ratio of 50:1 (FIG. 19B), attenuated to 7.3±2.5% lysis in asmase^−/− target cells, as quantified by ^51Cr-release assay. […]

Data set [3] concerns splenic T cells. In words: Activation-induced cell death (AICD) assay, T cell apoptosis. It is filed as cell-based, mouse. To be noted: 500 nM; 16 hr. From the text: To define a role for target cell ASMase in AICD, asmase^+/+, asmase^−/− or MRL.1pr (FasR^−/−) T cells were stimulated for 24 hr with 10 microgam/ml ConA, washed, rested in medium containing 20 U/ml rIL-2 for 24 hr, and finally AICD was initiated by restimulation in medium containing 20 U/ml rIL-2 and increasing concentrations of plate bound anti-CD3 mAb for 24 hr. AICD induction by anti-CD3 mAb conferred ceramide-rich platform generation 4 hr following stimulation (FIG. 19D), evident in 26.4±1.6% of the population of asmase^+/+ T cells compared to 5.1±1.0% of asmase^−/− T cells (p<0.005). Confocal analysis identified colocalization of the sphingolipid GM1 (FIG. 19E) and Fas within ceramide-rich platforms in asmase^+/+ T cells.
To characterize the impact of platform generation on AICD, asmase^+/+ and asmase^−/− T cells were induced to undergo AICD and apoptosis was quantified 16 hr thereafter. Apoptosis in asmase^+/+ T cells was anti-CD3 mAb dose-dependent, reaching 32.9±5.2% apoptosis 16 hr post induction (FIG. 19F). […]
Harvested splenocytes were enriched for T lymphocytes by nylon wool passage, resulting in >90% purity based upon FITC-CD3 mAb staining by flow cytometry. […] Cells were subsequently fixed, stained with 25 μl of 24 μg/ml bis-benzimide trihydrochloride solution (Hoechst #33258; Sigma-Aldrich, Milwaukee Wisc.) and apoptosis was quantified by fluorescence microscopy, as above.

Data set [4] has as its system splenic T cells. In words: Platform generation in T cells after AICD induction. To be noted: 500 nM; not shown.
Data set [5] deals with C57BL/6 splenocytes. In words: Platform generation on target splenocytes coincubated with MLR-primed CTLs. To be noted: 500 nM.
Data set [6] concerns C57BL/6 hepatocytes. Type of data set: cell-based. How it is done:
FIGS. 16A-16F. In vivo activated allogeneic CTLs require target hepatocyte ASMase for efficient killing ex vivo. Hepatocytes, isolated as described in Example 1, were coincubated with splenic T cells harvested from lethally-irradiated wild type C57BL/6 recipients 10-14 days following transplantation of LP BM+T cells. FIG. 16A: 2×10^6 GvH-activated CTLs were coincubated with 0.5×10^6 wild type C57BL/6 or B6.MRL.1pr (FasR^−/−) hepatocytes (left panel) in complete medium for 16 hr. […] Apoptosis was quantified following fixation by nuclear bisbenzimide staining. FIG. 16B: asmase^−/− hepatocytes are resistant to apoptosis induced by GvH-activated CTLs. CTL coincubation was performed as in FIG. 16A and apoptosis was quantified 16 hr thereafter. FIG. 16C: Representative images of asmase^+/+ (top left panel) and asmase^−/− (bottom left panel) C57BL/6 hepatocytes following 10 min coincubation in suspension with 2×10^6 GvH-activated T cells. Hepatocytes were fixed and stained with DAPI and Cy-3-labelled anti-ceramide mAb as described in Example 1. Arrows indicate ceramide-rich platform generation on the outer leaflet of the plasma membrane. […] FIG. 16D: Quantification of ceramide-rich platforms in asmase^+/+ and asmase^−/− hepatocytes following incubation with 2×10^6 GvH-activated CTLs. […] Apoptosis was quantified as in FIG. 16A. […] 0.5×10^6 wild type hepatocytes, preincubated with 50 μg/mL nystatin for 30 min and resuspended in RPMI containing 1% lipid-free FBS, were coincubated with 2×10^6 GvH-activated T cells and apoptosis was quantified as in FIG. 16A. […]
To assess whether ceramide-mediated raft clustering into membrane platforms is an essential component of cytolytic T cell (CTL)-induced apoptosis of hepatocytes, we blocked raft clustering pharmacologically and examined the impact on alloactivated CTL-induced hepatocyte apoptosis in vitro. […] Co-incubation induced increased hepatocyte apoptosis from a baseline of 4.7±0.7% to 33.8±1.9% by 16 hr, as detected by nuclear morphologic changes (FIG. 16A). […]

The subject of another data set is C57BL/6 mice. The settings on record: intravenous, prior to TBI; cited from earlier work.

These results are taken from patent publication US12121525B2, “Methods for treating GI syndrome and graft versus host disease” (Sloan Kettering Institute for Cancer Research, priority 2007, dated 2024).

For `CCCCCCCCCCCCCCCC(=O)N[C@@H](CO)[C@H](O)CCCCCCCCCCCCCCC` [C16-dihydroceramide], the “CTL-induced platform generation in asmase−/− hepatocytes” value in the data set on C57BL/6 hepatocytes [1] is reported as “failed to restore”. In the data set on C57BL/6 splenocytes [2], the “CTL-induced lysis of asmase−/− target splenocytes” value is reported as “ineffective”. Besides, the “apoptosis of asmase−/− T cells stimulated to undergo AICD” value in the data set with splenic T cells [3] is “not”. The “platform generation in asmase−/− T cells stimulated to undergo AICD” value in the data set with splenic T cells [4] is on record as “not”. The “platform generation on asmase−/− target splenocytes” value in the data set on C57BL/6 splenocytes [5] is “ineffective”.
Consider `C/C=C/[C@H]1O[C@@](O)([C@@H](C)[C@H](O)[C@H](C)[C@H]2OC(=O)/C(OC)=C/C(C)=C/[C@@H](C)[C@@H](O)[C@@H](CC)[C@@H](O)[C@H](C)C/C(C)=C/C=C/[C@@H]2OC)C[C@@H](O[C@H]2C[C@@H](O)[C@H](OC(N)=O)[C@@H](C)O2)[C@@H]1C` [CMA, concanamycin A], for which the CTL-induced hepatocyte apoptosis entry with C57BL/6 hepatocytes [6] (CTLs incubated 2 hr with 100 ng/ml CMA, wild type hepatocytes, 16 hr) was “no effect”.
For `C[C@@H]1[C@H](O)[C@@H](C)/C=C/C=C/CC/C=C/C=C/C=C/C=C/C(O[C@H]2O[C@H](C)[C@@H](O)[C@H](N)[C@@H]2O)CC2O[C@](O)(CC(O)C(O)CCC(O)CC(O)CC(O)CC(=O)O[C@H]1C)CC(O)C2C(=O)O` (some centres unmarked) [nystatin], the “2×10^6 alloactivated CTL-induced hepatocyte apoptosis” value in the data set on C57BL/6 hepatocytes [6] (wild type hepatocytes preincubated with 50 μg/mL nystatin for 30 min) was “completely inhibited”. Besides, in the data set with C57BL/6 hepatocytes [1] (wild type hepatocytes, nystatin 50 μg/mL 30 min), the “CTL-induced ceramide-rich platform generation” value was “abrogated”.
Take bFGF: endothelial cell survival factor: in the data set on C57BL/6 mice, the “crypt stem cell clonogens” value was “preserved”, the “lethality from the GI syndrome” value is “protected” and the “radiation-induced endothelial apoptosis of the intestinal microvascular system” value is recorded as “attenuated”.
